SMILES	melting point
O=[N+]([O-])c1cc([N+](=O)[O-])c(Nc2c(Br)cc(Cl)c3ccccc23)c(C(F)(F)F)c1	207 to 209 °C
CC(=NNC(=O)c1ccccc1C)c1ccncc1	187 °C
O=[N+]([O-])c1cccc(Nc2nccc(-c3ccccn3)n2)c1	213 to 219 °C
OC(c1cc(-c2ccc(Cl)cc2)c(-c2ccc(Cl)cc2)[nH]1)(C(F)(F)F)C(F)(F)F	144 to 145 °C
NC(=O)c1cc(C(=O)c2ccccc2)ccc1[N+](=O)[O-]	244 °C
Cc1ccc(C(=O)COc2ccc(Br)cc2CO)cc1	125 to 127 °C
Cc1nc2cnccc2n1-c1ccc(OCc2cccc(C(=O)Nc3nc4cc(F)ccc4s3)c2)cc1	244 to 246 °C
C#Cc1ccc(-c2c(C)nnc(Cl)c2-c2c(F)cc(F)cc2F)cc1	174 to 175 °C
COc1ccc2cc([C@H](C)C(=O)OCC(C)(O[N+](=O)[O-])O[N+](=O)[O-])ccc2c1	67 to 68 °C
O=C(NCc1ccccc1)c1ccnc(NC(=O)c2ccc(OC(F)(F)F)cc2)c1	151 to 153 °C
CC(=O)NN=C1CC2(CCN(C)CC2)OC1C (centres undefined)	164 to 167 °C
COc1ccc(C(=O)c2cccc([N+](=O)[O-])c2)cc1OC	133 to 135 °C
ClC(=NNc1ccccc1)c1ccc(Cl)c(Cl)c1	121 to 124 °C
CCCC(=O)NNC(=O)c1ccncc1	142 °C
CC(=O)OC1CCC2C3CCC4=C([N+](=O)[O-])C(=O)CCC4(C)C3CCC12C (centres undefined)	216 to 217 °C
Cc1cc(Oc2ccc(Cc3ccccc3)cc2)cc(C)c1N	61 to 63 °C
CC(C)[C@H](N)C(=O)NC(=O)N(CCCl)N=O	115 to 117 °C
CCOC(Cc1ccc(OCCn2c(=O)sc3cc(C(=O)c4ccccc4)ccc32)cc1)C(=O)OC (centres undefined)	118 to 119 °C
N#CCOc1cccc(CCNS(=O)(=O)c2ccc(Cl)cc2)c1	92 °C

SMILES	melting point
Cc1nc(C)n(-c2cc([C@@H]3C[C@H]3c3nc4ccccc4n3C)nc(C#N)n2)n1 (relative stereo)	229 to 231 °C
FC(F)(F)Oc1ccc2nccc(N3CCN(C(=S)NCc4ccccc4)CC3)c2c1	70 to 71 °C
c1ccc(N2CCN(Cc3coc4ccccc34)CC2)cc1	103 to 105 °C
Cc1nc2ccccc2c(N)c1C(C)O (centres undefined)	214 °C
O=C(O)c1cccc(-c2ncc(O)cn2)c1	293 to 295 °C
CCOC(=O)COc1ccc(NS(C)(=O)=O)c(C)c1	93 to 94 °C
COc1cc(OC)c(C=O)cc1I	170 to 172 °C
Fc1cccc(-c2nc(-c3ccccn3)no2)c1	88 to 98 °C
COc1ccc(-c2ccc(-c3nc(N)nc(N)n3)cc2)cc1	> 260 °C
CC(C)(C)OC(=O)N1CC[C@@H](CN(Cc2ccccc2)Cc2ccccc2)[C@H](O)C1 (relative stereo)	133 °C
Cc1cc2c(N3CCCC3C)ccc(C#N)c2o1 (centres undefined)	78 to 80 °C
NC(=O)N(O)Cc1sccc1Sc1ccc(F)cc1	101 to 103 °C
CC(=O)C1=C(O)C(=C(C)Nc2ccccc2)C(=O)OC1=O	184 to 186 °C
COC(=O)Cc1cccc(OC)c1OCCCc1cc(O)nn1Cc1ccc(Cl)cc1Cl	110 to 111 °C
COc1ccc(N(C(C)=O)S(=O)(=O)c2ccc(C)cc2)c([N+](=O)[O-])c1	172 to 174 °C
O=C(O)c1ccc(-c2cnc3c(c2)N(Cc2cc(F)ccc2F)CCN3)cc1	> 300 °C
CCCc1c(OCCCCCOc2ccc(C(=O)CCCC(=O)O)cc2CCC(=O)O)ccc2c1OCCC2=O	151 to 154 °C
O=c1c(Cc2ccccc2)c2n(c(=O)n1CCCCSc1cccc3nccn13)CCCS2(=O)=O	53 to 54 °C
COc1ccc(S(=O)(=O)Nc2ccc(C)cc2)c2c3ccccc3n(C=O)c12	193 to 199 °C

SMILES	melting point
Cc1nc(-c2ccc(-c3ccc(C(=O)O)cc3)c(C)c2)no1	229 to 231 °C
CN1C2C=C(c3c[nH]c4ccc(NC(=N)c5cccs5)cc34)CC1CC2 (centres undefined)	93 to 95 °C
CC(=O)Nc1ccccc1-c1ccc(F)cc1	123 to 124 °C
CCOC(=O)C1=C(C)NC(=S)N(C(=O)OCc2ccccc2)C1c1cccc([N+](=O)[O-])c1 (centres undefined)	122 to 124 °C
CCCCCCCCN(C[C@H]1CCC[C@H](CN(CCCCCCCC)C(=O)Nc2ccc(N(C)C)cc2)C1)C(=O)Nc1ccc(N(C)C)cc1 (relative stereo)	115 to 119 °C
COC(=O)c1cccc(-n2cnc3cc(-c4ccno4)ccc32)c1	190 to 191 °C
COc1ccc(CNc2cc(C(N)=O)c([N+](=O)[O-])cc2[N+](=O)[O-])cc1Cl	180 to 182 °C
CCCCCCCCC(SCCCCCC)C(=O)Nc1c(SC)ccc2ncc(C)cc12 (centres undefined)	137 to 138 °C
NCc1ccc(CNc2ncc3ncnc(Nc4ccc(F)c(Cl)c4)c3n2)cc1	211 to 213 °C
CCCc1nc2cccc(C(=O)OC)c2n1Cc1ccc(-c2ccccc2C(=N)NOC(C)=O)cc1	177 to 178 °C
COC(=O)c1cccc2c1c(C(C[N+](=O)[O-])C[N+](=O)[O-])cn2C	142 to 145 °C
CCc1noc(-c2c[nH]c(-c3cccc(Oc4ccc(Br)cn4)c3)n2)n1	141 to 142 °C
CC(C)(NCCONC(C)(C)C(=O)CCn1ccnc1[N+](=O)[O-])C(=O)CCn1ccnc1[N+](=O)[O-]	90 to 92 °C
COc1cccc2c(COCCC(c3ccccc3)c3ccccc3)coc12	147 to 149 °C
CCOC1=N[C@@H](C(C)C)C(=O)N[C@]1(C)Cc1ccccc1	125 °C
C=CCN(CC=C)C(=O)n1cnc(S(=O)(=O)CCCCC)n1	28 to 30 °C
CN(C)S(=O)(=O)c1c(S(N)(=O)=O)c(C(C)(C)C)cn1C	98 to 101 °C
CC(=O)OCc1ccc(N(c2ccccc2)c2ccccc2)cc1	86 to 89 °C
CCOC(=O)C1=C(C)NC(C)=C(C(=O)OC)C1c1cccc(N)c1 (single isomer, unassigned; (-))	173 to 175 °C

The next lines start with the values.

melting point	SMILES
302 to 304 °C	O=C1NC(=O)c2c1c(-c1ccccc1Cl)cc1oc3cc(OCCCN4CCCC4)c(O)cc3c21
180 to 182 °C	O=C1CNC(c2cc(-c3ccsc3)cc(-c3ccsc3)c2)=NN1CC(F)(F)F
228 to 230 °C	CCCC(=O)c1cnc2cc(Nc3ccc(O)cc3C)sc2c1
90 to 92 °C	COc1ccc(Cc2nc3cccc(NCc4cccnc4)c3o2)cc1OC1CCCC1
72 to 74 °C	Cc1ccc(CN2CCC(O)CC2)cc1
286 to 287 °C	COc1ccc(S(=O)(=O)c2cc3c(cc2OC)OC(C)(C)[C@@H](O)[C@@H]3N2CCCC2=O)cc1 (relative stereo)
153 to 154 °C	CC1(C)O[C@H]2CC(O)=C(O)C(=O)[C@H]2O1
97 °C	COC(=O)CCCc1cc2nc(Cl)ccc2n1S(=O)(=O)c1cccc(C(F)(F)F)c1
99 to 100 °C	C[C@@H]1[C@H](c2ccccc2)OC(=O)N1C(=O)CCc1ccccc1
126 to 128 °C	CCCc1c2c(cc3c1OC(O)(C(=O)OCC)CC3=O)CCCC2 (centres undefined)
193 to 194 °C	CS(=O)(=O)CCNC(=O)c1cccc(-c2ccc3c(c2)C(c2ccc(Cl)cc2Cl)CC3)c1 (centres undefined)
148 to 150 °C	Cc1nc(Cl)c2c(n1)N(c1c(C)cc(Br)cc1C)C(=O)C2C (centres undefined)
240 to 242 °C	CC1CC2C(=C(Cl)C=CC2(F)n2[nH]c3c(c2=O)CCCC3)O1 (centres undefined)
125 to 130 °C	Cc1ccc(-c2ccc(Cl)c(C(=O)NCC34CC5CC(CC(C5)C3)C4)c2)c(C(=O)O)n1
144 °C	O=C1[C@@H]2C[C@H](OCc3ccc4cnccc4c3)CN2C(=O)N1c1cc(Cl)cc(Cl)c1
162 to 164 °C	COc1ccc2c(c1)CCc1cn[nH]c1-2
217 to 218 °C	Cc1cc2c(-c3ccccc3C)c(C#N)n(C)c(=O)c2cc1C
134 to 137 °C	CSCc1cc(N)ccc1N1C(=O)c2ccc(Cl)cc2C1=O
216 to 219 °C	O=C(O)c1cn(C2CC2)c2cc(N3CCC(c4ccccn4)C3)c(F)cc2c1=O (centres undefined)

melting point	SMILES
124 to 127 °C	C=CCN(C)C(=O)Cn1c(-c2ccc(Cl)cc2)nc2cccnc21
138 °C	CC(=O)N1CCC(CNc2nc3ccccc3s2)CC1
155 to 157 °C	C[C@@H](c1ccc(-c2ccc(C#N)cn2)cc1)N1CC[C@](CC(C)(C)O)(c2ccc(F)cc2)OC1=O
> 300 °C	O=c1c(O)c(-c2nnc(Cc3ccc(F)cc3)o2)[nH]c2ccccc12
108 to 110 °C	O=C(c1nc2ccccc2s1)C1CCN(CCc2ccccc2)CC1
> 300 °C	Cc1nc(-c2cc3[nH]c(=O)c(=O)[nH]c3cc2[N+](=O)[O-])c[nH]1
151 to 153 °C	COCCc1nc2c(N)nc3c(c2n1CCOCCNS(C)(=O)=O)CCCC3
86 to 88 °C	Cc1cn(C2CC(N=[N+]=[N-])C(C(O)S(C)(=O)=O)O2)c(=O)n(C(=O)c2ccccc2)c1=O (centres undefined)
191 °C	O=C(COc1cc(-c2ccc(Cl)cc2)nc2ccccc12)N1CCOCC1
69 to 72 °C	CC(=O)NC1CCC(CNc2nc3c(s2)CCOc2ccccc2-3)CC1 (centres undefined)
243 to 247 °C	Cc1cccc(Cl)c1C(=O)N[C@@H](Cc1ccc(-c2c(C(F)(F)F)n(C)c(=O)n(C)c2=O)cc1)C(=O)O
170 to 172 °C	COc1cccc([C@H]2O[C@H](CC(N)=O)C(=O)N(CC(C)(C)C)c3ccc(Cl)cc32)c1OC
236 to 237 °C	CC(C)OC(=O)Nc1ccc(C2=NNC(=O)CC2C)cc1 (centres undefined)
171 to 173 °C	COc1ccc2c3c(c(=O)oc2c1)CN(Cc1cc(OC)c(OC)c(OC)c1)CC3
203 to 205 °C	CCCNC(=O)NS(=O)(=O)c1cc2c(cc1OC)OCC(NC(=O)c1cc(Cl)ccc1OC)C2 (centres undefined)
253 to 255 °C	O=C1CCC(N2C(=O)c3ccc(CNC(=O)c4ccc(Cl)c(Cl)c4)cc3C2=O)C(=O)N1 (centres undefined)
176 to 178 °C	CCOC(=O)C(C#N)C(=O)c1nn(-c2ccccc2)c2c1COc1ccccc1-2 (centres undefined)
130 °C	O=C(OCc1ccccc1)N1CCC(Nc2nc3cccnc3n2Cc2ccc(F)cc2)CC1

Source: a melting point compilation (Tetko et al.; mined from patent text by program, amines drawn as free bases though some values may be those of a salt)
